Where “and” joins values, the source holds several entries; their conditions need not be identical. Equal entries are not always repeated.
Experiments:
Assay type in all cases: physicochemical
[1] = HPLC analysis of drug degradation during jet milling; conditions: single-pass and double-pass vs unmilled standard, HPLC peak area
Description: Two vials (A; single-pass; 150 mg) and (B double-pass; 600 mg) of the micronized drug were available for determining drug degradation during jet milling micronization. […] The chromatographic peak area for the HPLC assay of the unmilled drug standard solution (10 mg/ml) gave a value of 23,427. […] The chromatographic peak areas for vials A and B were 11,979 and 11,677, respectively.

[2] = Respirable dose studies, Andersen cascade impactor; conditions: 90 L/min
Description: The respirable dose (respirable fraction) studies were performed using a standard sampler cascade impactor (Andersen), consisting of an inlet cone (an impactor pre-separator was substituted here), 9 stages, 8 collection plates, and a backup filter within 8 aluminum stages held together by 3 spring clamps and gasket O-ring seals, where each impactor stage contains multiple precision drilled orifices. When air is drawn through the sampler, multiple jets of air in each stage direct any airborne particles toward the surface of the collection plate for that stage. The size of the jets is constant for each stage, but is smaller in each succeeding stage. Whether a particle is impacted on any given stage depends upon its aerodynamic diameter. The range of particle sizes collected on each stage depends upon on the jet velocity of the stage, and the cut-off point of the previous stage. Any particle not collected on the first stage follows the air stream around the edge of the plate to the next stage, where it is either impacted or passed on to the succeeding stage, and so on, until the velocity of the jet is sufficient for impaction. To prevent particle bounce during the cascade impactor test, the individual impactor plates were coated with a hexane-grease (high vacuum) solution (100:1 ratio). As noted above, the particle size cut-off points on the impactor plates changed at different airflow rates. […] The set-up recommended by the United States Phamacopeia for testing dry powder inhalers consists of a mouthpiece adapter (silicone in this case) attached to a glass throat (modified 50 ml round-bottom flask) and a glass distal pharynx (induction port) leading top the pre-separator and Andersen sampler. The pre-separator sample includes washings from the mouthpiece adaptor, glass throat, distal glass pharynx and pre-separator. 5 ml acetonitrile:water (1:1 ratio) solvent was placed in the pre-separator before performing the cascade impactor experiment, that were performed in duplicate with 3 different dry powder inhaler devices and at 3 airflow rates, 30, 60 and 90 L/min. The drug collected on the cascade impactor plates were assayed by the HPLC, and a drug mass balance was performed for each Diskhaler and multi-dose cascade impactor experiment consisting of determining the amount of drug left in the blister, the amount of drug remaining in the device (Diskhaler only), the non-respirable amount of the dose retained on the silicone rubber mouth piece adaptor, glass throat, glass distal pharynx and pre-separator, all combined into one sample, and the respirable dose, i.e. Stage 2 through filter impactor plates for airflow rates of 30 and 60 L/min and Stages 1 through filter impactor plates for 90 L/min experiments.
The cascade impactor experiments were conducted as described in Example 3. Four cascade impactor experiments were done, three with a IDL multi-dose device and one with a Diskhaler, all at 90 L/min. […] However, the % respirable dose was still low. This was likely the result of moisture absorption of the anhydrous form.

[3] = Emitted dose studies with dry powder inhalers; conditions: for Emitted Dose: single runs
Description: DHEA-S powder was collected in Nephele tubes and assayed by HPLC. Triplicate experiments were performed at each airflow rate for each of the three dry powder inhalers tested (Rotahaler, Diskhaler and IDL's DPI devices). A Nephele tube was fitted at one end with a glass filter (Gelman Sciences, Type A/E, […]), which in turn was connected to the airflow line to collect the emitted dose of the drug from the respective dry powder inhaler being tested. A silicone adapter, with an opening to receive the mouthpiece of the respective dry powder inhaler being tested at the other end of the Nephele tube was secured. A desired airflow, of 30, 60, or 90 L/min, was achieved through the Nephele tube. Each dry powder inhaler's mouthpiece was inserted then into the silicone rubber adapter, and the airflow was continued for about four s after which the tube was removed and an end-cap screwed onto the end of each tube. The end-cap of the tube not containing the filter was removed and 10 ml of an HPLC grade water-acetonitrile solution (1:1) added to the tube, the end-cap reattached, and the tube shaken for 1-2 minutes. The end-cap then was removed from the tube and the solution was transferred to a 10 ml plastic syringe fitted with a filter (Cameo 13N Syringe Filter, Nylon, 0.22 μm). An aliquot of the solution was directly filtered into an HPLC vial for later drug assay via HPLC. […] When the micronized DHEA-S (only vial B used), was weighed for placement into the gelatin capsule or blister, there appeared to be a few aggregates of the micronized powder. […] Table 2 summarizes the results for the Rotahaler experiments at 3 different flow rates, for the Diskhaler experiments at 3 different flow rates, and of the multi-dose experiments at 3 different flow rates.

[4] = Solid-state stability with and without lactose (DHEA formed, HPLC)
From the text: These conditions were used to stress the formulation in order to predict its long-term stability results. […] This color change is accompanied by a significant change in the chromatogram as shown in. FIG. 1. The primary degradant is DHEA. […] The materials on accelerated storage become more cohesive with time as evidenced by clumping during sample weighing for chemical analysis. […] This is a considerable disadvantage since lactose is the most commonly used inhalation excipient for dry powder formulations. Continuing with the virtually anhydrous form would mean limiting formulations to neat powder or undertaking more comprehensive safety studies to use a novel excipient.

[5] = Multi-dose, oven dried drug for 80 minutes
[6] = Multi-dose, oven dried drug for 20 hours
[7] = Diskhaler (2nd study), 87.8 L/min
[8] = IDL Multi-Dose (2nd study), 87.8 L/min

**Q.** For `C[C@]12CC[C@H](OS(=O)(=O)[O-])CC1=CC[C@@H]1[C@@H]2CC[C@]2(C)C(=O)CC[C@@H]12.[Na+]` [Anhydrous DHEA-S], which “degradation of the drug during jet milling micronization” value [1] is on record?
**A.** The value was “no detectable degradation”.

**Q.** What about the “respirable dose of spray-dried compared to micronized anhydrous DHEA-S” value [2] of the same compound?
**A.** Its value is “two-fold increase”.

**Q.** What about the Blister [2, 5] of the same compound?
**A.** The Blister was 2.8%.

**Q.** And the “Mass Balance” value [2, 5]?
**A.** The value was 100.0%.

**Q.** What about the Preseparator [2, 5] of the same compound?
**A.** The Preseparator was 78.7%.

**Q.** What about the “Respirable Dose” value [2, 5] of the same compound?
**A.** The value was 4.6%.

**Q.** What about the Device ([2]; Multi-dose, oven dried drug for 80 minutes, by difference) of the same compound?
**A.** Its Device is 13.9 *^a %.

**Q.** And the Blister [2, 6]?
**A.** Its Blister is 5.0%.

**Q.** And the “Mass Balance” value [2, 6]?
**A.** Its value is 100.0%.

**Q.** And the Preseparator [2, 6]?
**A.** The Preseparator was 55.9%.

**Q.** And the “Respirable Dose” value [2, 6]?
**A.** Its value is 1.2%.

**Q.** What about the Device ([2]; Multi-dose, oven dried drug for 20 hours, by difference) of the same compound?
**A.** Its Device is 37.9 *^a %.

**Q.** And the Blister ([2]; jet-milled drug, Diskhaler)?
**A.** The Blister was 6.6% and 10.1%.

**Q.** What about the Device ([2]; jet-milled drug, Diskhaler) of the same compound?
**A.** Its Device is 22.1% and 13.3%.

**Q.** What about the “Mass Balance” value ([2]; jet-milled drug, Diskhaler) of the same compound?
**A.** The value was 104.3% and 86.0%.

**Q.** What about the Preseparator ([2]; jet-milled drug, Diskhaler) of the same compound?
**A.** Its Preseparator is 72.7% and 60.2%.

**Q.** What about the “Respirable Dose” value ([2]; jet-milled drug, Diskhaler) of the same compound?
**A.** The value was 2.9% and 2.4%.

**Q.** And the Blister ([2]; jet-milled drug, Multi-dose)?
**A.** The Blister was 3.8% and 3.9%.

**Q.** What about the “Mass Balance” value ([2]; jet-milled drug, Multi-dose) of the same compound?
**A.** The value was 100.0%.

**Q.** And the Preseparator ([2]; jet-milled drug, Multi-dose)?
**A.** Its Preseparator is 73.3% and 65.8%.

**Q.** And the “Respirable Dose” value ([2]; jet-milled drug, Multi-dose)?
**A.** The value was 3.6% and 3.8%.

**Q.** And the Device ([2]; jet-milled drug, Multi-dose, retention obtained by difference)?
**A.** The Device was 19.3 *^a % and 26.5 *^a %.

**Q.** What about the Blisters ([2]; spray-dried drug, Diskhaler) of the same compound?
**A.** Its Blisters is 29.0%.

**Q.** And the Device ([2]; spray-dried drug, Diskhaler)?
**A.** Its Device is 11.2%.

**Q.** What about the Preseparator ([2]; spray-dried drug, Diskhaler) of the same compound?
**A.** The Preseparator was 56.8%.

**Q.** And the “Respirable Dose” value ([2]; spray-dried drug, Diskhaler)?
**A.** Its value is 5.6%.

**Q.** And the “Emitted Dose, Average” value [3, 7]?
**A.** Its value is 59.1%.

**Q.** And the “Emitted Dose” value [3, 7]?
**A.** The value was 57.9% and 59.9% and 59.5%.

**Q.** What about the “Emitted Dose, Average” value ([3]; Diskhaler, 30 L/min) of the same compound?
**A.** Its value is 58.6%.

**Q.** And the “Emitted Dose” value ([3]; Diskhaler, 30 L/min)?
**A.** The value was 53.8% and 53.4% and 68.7%.

**Q.** And the “Emitted Dose, Average” value ([3]; Diskhaler, 60 L/min)?
**A.** Its value is 68.2%.

**Q.** And the “Emitted Dose” value ([3]; Diskhaler, 60 L/min)?
**A.** The value was 63.4% and 38.9% and 58.0%.

**Q.** What about the “Emitted Dose, Average” value ([3]; Diskhaler, 87.8 L/min) of the same compound?
**A.** The value was 51.3%.

**Q.** And the “Emitted Dose” value ([3]; Diskhaler, 87.8 L/min)?
**A.** The value was 65.7% and 41.6% and 46.5%.

**Q.** And the “Emitted Dose, Average” value [3, 8]?
**A.** The value was 84.8%.

**Q.** And the “Emitted Dose” value [3, 8]?
**A.** The value was 85.7% and 84.6% and 84.0%.

**Q.** And the “Emitted Dose, Average” value ([3]; IDL Multi-Dose, 30 L/min)?
**A.** Its value is 85.4%.

**Q.** What about the “Emitted Dose” value ([3]; IDL Multi-Dose, 30 L/min) of the same compound?
**A.** The value was 78.9% and 88.2% and 89.2%.

**Q.** What about the “Emitted Dose, Average” value ([3]; IDL Multi-Dose, 60 L/min) of the same compound?
**A.** The value was 84.0%.

**Q.** And the “Emitted Dose” value ([3]; IDL Multi-Dose, 60 L/min)?
**A.** The value was 78.8% and 83.7% and 89.6%.

**Q.** What about the “Emitted Dose, Average” value ([3]; IDL Multi-Dose, 87.8 L/min) of the same compound?
**A.** The value was 72.6%.

**Q.** And the “Emitted Dose” value ([3]; IDL Multi-Dose, 87.8 L/min)?
**A.** The value was 71.3% and 79.0% and 67.4%.

**Q.** And the “Emitted Dose, Average” value ([3]; Rotahaler (2nd study), 87.8 L/min)?
**A.** Its value is 31.5%.

**Q.** And the “Emitted Dose, Average” value ([3]; Rotahaler, 30 L/min)?
**A.** The value was 34.7%.

**Q.** What about the “Emitted Dose, Average” value ([3]; Rotahaler, 60 L/min) of the same compound?
**A.** Its value is 57.3%.

**Q.** And the “Emitted Dose” value ([3]; Rotahaler, 60 L/min)?
**A.** Its value is 58.1% and 68.2% and 45.7%.

**Q.** And the “Emitted Dose, Average” value ([3]; Rotahaler, 87.8 L/min)?
**A.** The value was 69.7%.

**Q.** And the “Emitted Dose” value ([3]; Rotahaler, 87.8 L/min)?
**A.** Its value is 73.2% and 67.1% and 68.7%.

**Q.** And the DHEA % formed ([4]; 50° C., 1 week)?
**A.** The DHEA % formed was 9.817%.

**Q.** And the DHEA % formed ([4]; 50° C., 2 weeks)?
**A.** Its DHEA % formed is 14.954%.

**Q.** What about the DHEA % formed ([4]; 50° C., 4 weeks) of the same compound?
**A.** Its DHEA % formed is 20.171%.

**Q.** And the DHEA % formed ([4]; Control: neat, sealed vial, 25° C., 1 week)?
**A.** The DHEA % formed was 2.694%.

**Q.** What about the DHEA % formed ([4]; Control: neat, sealed vial, 25° C., 2 weeks) of the same compound?
**A.** Its DHEA % formed is 2.370%.

**Q.** And the DHEA % formed ([4]; Control: neat, sealed vial, 25° C., 4 weeks)?
**A.** Its DHEA % formed is 2.666%.

**Q.** What about the DHEA % formed ([4]; Control: neat, sealed vial, 25° C., first time column (head empty, time 0)) of the same compound?
**A.** Its DHEA % formed is 2.774%.
